Laboratory results as given in patent publication US9034922B2, “Composition for maintaining function of platelets” (THE UNIVERSITY OF TOKYO, priority 2010, dated 2015).

Assays:
[1] = molecular target: T1, Matrix metalloproteinase 3 (MMP-3) (Homo sapiens, UniProt P08254); assay: Enzyme inhibition experiment, MMP-3; assay type: biochemical; conditions: 3168 substrate, 37° C., 4 hours
T1 construct: purchased Calbiochem 444217
Procedure: Matrix metalloproteinase 3 (MMP-3) (manufactured by Calbiochem, product number: 444217)
(§1) 3168 substrate (MOCAc-Arg-Pro-Lys-Pro-Val-Glu-Nva-Trp-Arg-Lys(Dnp)-NH2, manufactured by Peptide Institute, Inc.): excitation wavelength at 320 nm, emission wavelength at 405 nm, and 3163 substrate (MOCAc-Pro-Leu-Gly-Leu-A2pr(Dnp)-Ala-Arg-NH2, manufactured by Peptide Institute, Inc.): excitation wavelength at 320 nm, emission wavelength at 405 nm.
(§2) The enzyme reaction was carried out using the enzymes and substrates. Specifically, if necessary, the enzyme was activated in advance with APMA (final concentration 1 mmol/L, p-aminophenylmercuric acetate, manufactured by Sigma-Aldrich Co., A9563) according to information from the manufacturer. Then, in a 96-well plate for fluorescence measurement, 90 μL of an enzyme solution prepared with Assay Buffer A (50 mmol/L Tris-HCl buffer (pH 7.5) containing 200 mmol/L sodium chloride, 5 mmol/L calcium chloride, 10 μmol/L zinc sulfate, and 2 mg/mL bovine serum albumin) was mixed with 90 μL of the substrate adjusted to be 20 μmol/L with Assay Buffer B (50 mmol/L Tris-HCl buffer (pH 7.5) containing 200 mmol/L sodium chloride, 5 mmol/L calcium chloride, 10 μmol/L zinc sulfate, and 0.05% PLURONIC F-68), and incubated for reaction at 25° C. or 37° C. for several hours. Moreover, the fluorescence intensities before and after the reaction were measured using a fluorometer to determine the enzyme activity. An inhibition rate was obtained based on the enzyme activities in the presence and absence of the test substances, and the 50% inhibitory concentration (IC50) was calculated.

[2] = molecular target: T2, Matrix metalloproteinase 17 (MMP-17) (Homo sapiens, UniProt Q9ULZ9); assay: Enzyme inhibition experiment, MMP-17; assay type: biochemical; conditions: 3163 substrate, 25° C., 5 hours
T2 construct: purchased Calbiochem 475940
T2 sequence (Q9ULZ9 126-298 limits assumed): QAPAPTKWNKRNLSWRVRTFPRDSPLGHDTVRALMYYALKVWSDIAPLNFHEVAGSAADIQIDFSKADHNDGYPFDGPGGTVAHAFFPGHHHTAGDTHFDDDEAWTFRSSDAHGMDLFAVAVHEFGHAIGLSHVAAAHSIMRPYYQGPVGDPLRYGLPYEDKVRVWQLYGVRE
Procedure: Matrix metalloproteinase 17 (MMP-17) (manufactured by Calbiochem, product number: 475940)
as §1, §2

[3] = molecular target: T3, Matrix metalloproteinase 13 (MMP-13) (Homo sapiens, UniProt P45452); assay: Enzyme inhibition experiment, MMP-13; assay type: biochemical; conditions: 444221 substrate, 37° C., 4 hours
T3 construct: purchased Chemicon CC068
Procedure: Matrix metalloproteinase 13 (MMP-13) (manufactured by Chemicon, product number: CC068)
as §2, with “activity.” for “activity. An inhibition rate was obtained based on the enzyme activities in the presence and absence of the test substances, and the 50% inhibitory concentration (IC50) was calculated.”

[4] = system: ES cell-derived platelets (ADAM17-mediated GPIbα shedding); assay: Function-maintaining effect on ES cell-derived platelets in culture system (flow cytometry CD41/CD42b, platelet count)
Procedure: As human ES cells (hES cells), a KhES cell line (KhES-3) established by and provided from Institute for Frontier Medical Sciences, Kyoto University was used.
The human ES cells or the human iPS cells were seeded on the feeder cells such that the cell count was 5×10^4 to 1×10^5/10-cm dish. The cells were cultured in Iscove's Modified Dulbecco's Medium (IMDM, manufactured by Invitrogen Corp/GIBCO) supplemented with 15% FBS (product name: CELLect™ GOLD, manufactured by ICN Biomedicals Inc.), 2 mM L-glut amine (manufactured by Invitrogen Corp.), ITS supplement (10 μg/ml insulin, 5.5 mg/ml human transferrin, 5 ng/ml sodium selenite) (manufactured by Sigma-Aldrich Co.), 50 μg/ml ascorbic acid (Sigma-Aldrich Co.), 0.45 mM α-monothioglycerol (MTG, manufactured by Sigma-Aldrich Co.), and 20 ng/ml vascular endothelial growth factor (VEGF, manufactured by R&D Systems, Inc.). Further, this culturing was carried out at 37° C. in 5% CO2 and 21% O2 (atmospheric oxygen) using a CO2 incubator (product name: HERA CELL 150i, manufactured by Thermo Fisher Scientific K. K.). Then, the medium was replaced every 3 days, and the culturing was continued under the conditions until Day 15 when a large number of sac structures (sac-like structures) containing hematopoietic progenitor cells therein were observed.
Next, after detached from the dish, the sac structures were disrupted and suspended in a 3% FBS-containing phosphate buffer solution (PBS). Then, the suspension was passed through a 40-μm cell strainer (manufactured by BD). The solution thus passed through was centrifuged at 440×g for 10 minutes to collect hematopoietic progenitor cells, and the cells was counted. The hematopoietic progenitor cells were seeded on 10T1/2 cells newly prepared in a 6-well plate (6×10^5 cells/plate) exposed to 50-Gy radiation such that the number of the hematopoietic progenitor cells was 2 to 3×10^4/well. The hematopoietic progenitor cells were further cultured for 8 days in IMDM (manufactured by Invitrogen Corp/GIBCO) supplemented with 15% FBS (product name: CELLect™ GOLD, manufactured by ICN Biomedicals Inc.), 2 mM L-glutamine (manufactured by Invitrogen Corp.), ITS supplement (10 μg/ml insulin, 5.5 mg/ml transferrin, 5 ng/ml sodium selenite) (manufactured by Sigma-Aldrich Co.), 50 μg/ml ascorbic acid (manufactured by Sigma-Aldrich Co.), 0.45 mM MTG (manufactured by Sigma-Aldrich Co.), 100 ng/ml human thrombopoietin (human TPO, manufactured by PeproTech, Inc.), 50 ng/ml human stem cell factor (SCF, manufactured by PeproTech, Inc.), and 25 U/ml heparin. Thereby, megakaryocytes/platelets were induced.
Subsequently, the induced megakaryocytes/platelets were collected with an anticoagulant solution (Acid Citrate Dextrose, ACD), followed by centrifugation at 900 rpm for 10 minutes without a break. The supernatant obtained by the centrifugation was further centrifuged at 1500 rpm for 10 minutes without a break to remove the supernatant. Thereafter, the numbers of megakaryocytes and platelets in the precipitate thus obtained were analyzed by flow cytometry using antibodies for staining.
Note that, in the flow cytometry, FACS Aria manufactured by Becton, Dickinson and Company was used. As the antibodies used to stain the megakaryocytes and the platelets, used were a Phycoerythrin (PE)-modified anti-human CD42a (GPIX) antibody, a PE-modified anti-human CD42b (GPIbα) antibody, and an allophycocyanin (APC)-labelled anti-CD41a (integrin αIIbbeta3 complex, HIP8 clone) antibody (manufactured by BD Bioscience). Additionally, in order to accurately measure the absolute numbers of the megakaryocytes and the platelets, the cells were stained with these antibodies, and the analysis was conducted by flow cytometry using TruCount beads (manufactured by BD Bioscience), also.

[5] = molecular target: T4, Matrix metalloproteinase 14 (MMP-14) (Homo sapiens, UniProt P50281); assay: Enzyme inhibition experiment, MMP-14; assay type: biochemical; conditions: 444221 substrate, 37° C., 5 hours
T4 construct: purchased Calbiochem 475935
Procedure: Matrix metalloproteinase 14 (MMP-14) (manufactured by Calbiochem, product number: 475935)
444221 substrate (DNP-Pro-Cha-Gly-Cys(Me)-His-Ala-Lys(Nma)-NH2, custom synthesis): excitation wavelength at 355 nm, emission wavelength at 460 nm
as §2

ADAM17 = molecular target: T5, ADAM17 (Homo sapiens, UniProt P78536); assay: ADAM17 inhibition experiment (fluorescent synthetic substrate); assay type: biochemical
T5 construct: made in house; host or cells: mammalian cells or insect cells
Procedure: The cDNA was incorporated into an expression vector. Then, this vector was transfected into mammalian cells or insect cells, and ADAM17 was expressed and obtained.
Next, the activity of ADAM17 was measured, as follows in the presence or absence of the test substances, in which obtained ADAM17 was used as an enzyme, and a fluorescent synthetic substrate Nma (N-methyl anthranilate)-[…]Dnp (dinitrophenyl)-D-Arg-NH2 containing an ADAM17-cleavage sequence of membrane-bound TNF was used as a substrate.
Specifically, 90 μL of 14 units of an enzyme solution (1 unit is defined as an amount of enzyme degrading […] of the substrate in 1 minute at 25° C.) prepared with Assay Buffer A (50 mmol/L Tris-HCl buffer (pH 7.5) containing 200 mmol/L sodium chloride, 5 mmol/L calcium chloride, 10 μmol/L zinc sulfate, and 2 mg/mL bovine serum albumin) was mixed with 90 μL of the fluorescent synthetic substrate adjusted to be 20 μmol/L with Assay Buffer B (50 mmol/L Tris-HCl buffer (pH 7.5) containing 200 mmol/L sodium chloride, 5 mmol/L calcium chloride, 10 μmol/L zinc sulfate, and 0.05% PLURONIC F-68), and allowed for reaction at 37° C. for 1.5 hours. Thereafter, the enzyme activity was determined by measurement using a fluorometer (Fluoroskan Ascent) under conditions of an excitation wavelength of 355 nm and a measurement wavelength of 460 nm. Then, an inhibition rate was obtained based on the enzyme activities in the presence and absence of the test compounds, and the 50% inhibitory concentration (IC50) was calculated.
A disintegrin and metalloproteinase 17 (ADAM17, TACE) (used was one prepared at Kaken Pharmaceutical Co., Ltd. by employing the genetic recombination in the same way as in Test Example 3. Note that, the same as in Test Example 3, 1 unit is defined as an amount of enzyme degrading 1 pmol of substrate in 1 minute at 25° C.)
(§3) TACE substrate (the same as one used in Test Example 3): excitation wavelength at 355 nm, emission wavelength at 460 nm
as §2

[6] = molecular target: T6, A disintegrin and metalloproteinase 10 (ADAM10) (Homo sapiens, UniProt O14672); assay: Enzyme inhibition experiment, ADAM10; assay type: biochemical; conditions: TACE substrate, 25° C., 5 hours
T6 construct: purchased Funakoshi Co., Ltd. 936-AD-020
T6 sequence (O14672 214-672 limits assumed): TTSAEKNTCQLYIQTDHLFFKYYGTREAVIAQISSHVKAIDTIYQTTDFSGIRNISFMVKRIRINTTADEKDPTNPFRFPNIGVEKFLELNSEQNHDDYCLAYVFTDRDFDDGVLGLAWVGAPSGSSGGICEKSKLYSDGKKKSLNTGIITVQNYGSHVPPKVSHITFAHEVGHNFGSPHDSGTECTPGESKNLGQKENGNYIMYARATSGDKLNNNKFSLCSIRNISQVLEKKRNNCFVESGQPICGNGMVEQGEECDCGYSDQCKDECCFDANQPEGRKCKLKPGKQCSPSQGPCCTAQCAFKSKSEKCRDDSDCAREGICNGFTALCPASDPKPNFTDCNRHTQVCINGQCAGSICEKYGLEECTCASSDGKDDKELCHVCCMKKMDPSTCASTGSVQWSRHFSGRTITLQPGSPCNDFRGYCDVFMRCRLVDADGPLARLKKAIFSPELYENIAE
Procedure: A disintegrin and metalloproteinase 10 (ADAM10) (manufactured by Funakoshi Co., Ltd., product code: 936-AD-020) and
as §3, §2

T5 sequence (P78536 215-824): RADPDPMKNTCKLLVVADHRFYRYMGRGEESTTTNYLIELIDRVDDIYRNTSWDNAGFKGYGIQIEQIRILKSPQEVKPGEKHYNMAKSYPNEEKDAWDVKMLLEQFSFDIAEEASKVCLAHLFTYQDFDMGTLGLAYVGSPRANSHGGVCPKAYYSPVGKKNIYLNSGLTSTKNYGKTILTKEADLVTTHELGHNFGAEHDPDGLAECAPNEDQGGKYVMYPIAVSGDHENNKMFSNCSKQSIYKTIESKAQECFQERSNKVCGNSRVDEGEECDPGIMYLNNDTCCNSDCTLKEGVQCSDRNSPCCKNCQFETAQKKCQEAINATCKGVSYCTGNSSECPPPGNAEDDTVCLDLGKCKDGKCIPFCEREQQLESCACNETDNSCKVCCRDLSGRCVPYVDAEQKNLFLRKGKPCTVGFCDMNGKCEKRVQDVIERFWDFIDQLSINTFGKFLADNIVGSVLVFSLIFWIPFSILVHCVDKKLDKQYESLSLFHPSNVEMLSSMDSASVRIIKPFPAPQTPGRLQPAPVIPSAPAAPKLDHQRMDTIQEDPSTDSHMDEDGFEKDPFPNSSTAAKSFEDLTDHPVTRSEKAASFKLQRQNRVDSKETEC
T1 sequence (P08254 100-272 limits assumed): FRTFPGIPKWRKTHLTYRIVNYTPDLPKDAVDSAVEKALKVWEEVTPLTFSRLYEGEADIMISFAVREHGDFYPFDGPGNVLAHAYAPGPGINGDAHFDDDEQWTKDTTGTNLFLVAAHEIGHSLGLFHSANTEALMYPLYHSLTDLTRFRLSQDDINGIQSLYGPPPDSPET

Q: What does the source list for `CNC(=O)[C@H](Cc1c[nH]c2ccccc12)NC(=O)[C@@H](CC(=O)NO)CC(C)C` [GM6001, reference compound]?
A: IC50 [1]: 32 nM; IC50 [2]: 3 nM; IC50 [3]: 0.26 nM; cytotoxicity ([4]; Test Example 5, 50 μM, 8-day addition): had cytotoxicity; number of platelets obtained ([4]; Test Example 5, 8-day addition, 50 μM GM6001 vs 5 μM S-45282): fewer platelets than 5 μM S-45282; inhibition of ADAM17-mediated GPIbα shedding (CD42b(+) percentage) ([4]; Test Example 5, added for 2 days or 8 days, GM6001 50 μM, S-45282 5 μM or 50 μM): inhibit ADAM17-mediated GPIbα shedding; number of platelets obtained ([4]; Test Example 5, added for 2 days, 50 μM GM6001, 5 μM S-45282): approximately the same; inhibition of ADAM17-mediated GPIbα shedding ([4]; Test Example 6, 8 days, S-45457 5 μM or 50 μM, GM6001 50 μM): inhibits ADAM17-mediated GPIbα shedding; IC50 [5]: 1.6 nM; IC50 (ADAM17): 310 nM; inhibitory activity on ADAM17 enzyme (in words) (ADAM17): weak; specificity to ADAM17 in comparison with metalloproteinases other than ADAM17 (ADAM17; from Table 3): non-specifically and strongly inhibited metalloproteinases; IC50 ADAM10 [6]: 410 nM
